Measurements reported in patent US20150073021A1 (priority 2013, published 2015).

Assays:
bovine serum albumin = bovine serum albumin (Bos taurus, UniProt P02769); conditions: cited from earlier work
[1] = system: rats expressing pathologically excessive levels of MMPs; conditions: rat, in vivo; cited from earlier work
humans = conditions: in vivo; cited from earlier work
Bacillus anthracis = conditions: in vivo
cell and tissue culture = conditions: cited from earlier work

bovine serum albumin, sequence (P02769 25-607): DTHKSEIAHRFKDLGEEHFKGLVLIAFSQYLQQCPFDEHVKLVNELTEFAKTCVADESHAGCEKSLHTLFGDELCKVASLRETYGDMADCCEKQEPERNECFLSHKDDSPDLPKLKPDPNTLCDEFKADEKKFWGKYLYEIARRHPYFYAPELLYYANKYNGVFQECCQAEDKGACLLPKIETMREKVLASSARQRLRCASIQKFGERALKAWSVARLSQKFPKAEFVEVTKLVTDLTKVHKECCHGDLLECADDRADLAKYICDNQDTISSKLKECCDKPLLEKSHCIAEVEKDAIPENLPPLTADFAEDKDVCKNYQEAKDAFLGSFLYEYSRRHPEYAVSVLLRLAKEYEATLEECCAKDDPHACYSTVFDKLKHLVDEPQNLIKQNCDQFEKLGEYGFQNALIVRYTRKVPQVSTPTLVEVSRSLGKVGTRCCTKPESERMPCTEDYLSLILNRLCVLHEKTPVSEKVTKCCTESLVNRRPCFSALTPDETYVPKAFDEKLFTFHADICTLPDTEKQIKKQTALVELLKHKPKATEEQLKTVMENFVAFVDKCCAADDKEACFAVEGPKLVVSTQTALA

SMILES: COc1cc(/C=C/C(=O)CC(=O)/C=C/c2ccc(O)c(OC)c2)ccc1O [curcumin, reference compound]
- binding to bovine serum albumin (bovine serum albumin): bind fairly strongly
- toxicity after oral gavage [1]: no evidence of toxicity
- toxicity in humans (humans): virtually no toxicity

SMILES: O=C(/C=C/c1ccc(O)cc1)C(C(=O)/C=C/c1ccc(O)cc1)C(=O)Nc1ccccc1 [CMC2.24]
- treatment of subject infected with Bacillus anthracis (Bacillus anthracis): effective to treat the subject
- binding to bovine serum albumin (bovine serum albumin): bind fairly strongly
- toxicity after oral gavage [1]: no evidence of toxicity
- toxicity compared to the parent compound curcumin (cell and tissue culture): even less toxicity
